Source: ChEMBL document CHEMBL1201862, “PubChem BioAssay data set” (2004)
Active and inactive are the calls of the source. Cut-off read from the data, not from the text of the source, for most assays here: actives have a measured EC50 and inactives only a lower limit.

Legend:
[1] = test system: Streptococcus; experiment: Group A Streptococcus viability loss, dose response, counter-screen for streptokinase expression inhibitor project, luminescence, BacTiterGlo (AID 1915); assay type: functional, organism-based; conditions: Streptococcus;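 note: potency for reduction of bacterial viability or growth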
[2] = molecular target: T1, Streptokinase A (Streptococcus pyogenes serotype M1, UniProt P10520); experiment: S. pyogenes streptokinase expression inhibitors, potency, dose response, plasminogen activation absorbance, OD405 (AID 1914); assay type: functional, Streptococcus pyogenes M1 GAS;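 note: secreted streptokinase activity via plasminogen activation per viability signal from cell pellet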
T1 sequence (P10520 whole entry): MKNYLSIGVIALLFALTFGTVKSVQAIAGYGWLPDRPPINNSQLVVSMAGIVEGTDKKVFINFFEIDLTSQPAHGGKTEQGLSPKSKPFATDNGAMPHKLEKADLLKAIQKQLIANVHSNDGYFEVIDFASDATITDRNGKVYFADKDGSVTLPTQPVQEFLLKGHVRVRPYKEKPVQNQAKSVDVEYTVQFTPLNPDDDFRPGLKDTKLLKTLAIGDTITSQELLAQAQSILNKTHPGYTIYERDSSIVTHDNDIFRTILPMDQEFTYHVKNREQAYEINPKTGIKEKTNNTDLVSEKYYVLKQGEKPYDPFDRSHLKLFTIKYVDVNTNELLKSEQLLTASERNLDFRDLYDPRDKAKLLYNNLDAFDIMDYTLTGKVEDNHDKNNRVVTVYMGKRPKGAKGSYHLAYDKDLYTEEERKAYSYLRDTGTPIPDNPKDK

[3] = test system: Streptococcus sp. 'group A'; experiment: growth inhibition of control SK(-) GAS strain, dose response, counter-screen for streptokinase expression inhibitor project, luminescence, kanamycin, BacTiterGlo, confirmation (AID 1900); assay type: functional, organism-based; conditions: Streptococcus sp. 'group A'
[4] = molecular target: T2, Corticotropin-releasing factor receptor 2/Corticotropin-releasing factor-binding protein (Homo sapiens, UniProt P24387+Q13324); experiment: Dose Response confirmation of uHTS hits for small molecule antagonists of the CRF-binding protein and CRF-R2 receptor complex.; assay type: functional; conditions: read-out: IC50_Mean
T2 sequence (Q13324 whole entry): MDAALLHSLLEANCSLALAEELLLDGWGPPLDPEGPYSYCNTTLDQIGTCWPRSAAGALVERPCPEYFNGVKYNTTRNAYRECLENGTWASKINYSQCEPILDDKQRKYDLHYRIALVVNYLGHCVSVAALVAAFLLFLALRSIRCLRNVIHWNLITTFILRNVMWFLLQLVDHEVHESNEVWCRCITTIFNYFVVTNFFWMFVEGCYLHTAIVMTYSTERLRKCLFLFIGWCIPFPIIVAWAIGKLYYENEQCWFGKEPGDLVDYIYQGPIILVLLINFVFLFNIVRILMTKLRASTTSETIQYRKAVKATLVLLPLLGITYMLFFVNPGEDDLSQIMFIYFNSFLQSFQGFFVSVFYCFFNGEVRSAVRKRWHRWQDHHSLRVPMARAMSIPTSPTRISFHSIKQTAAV
T2 sequence (P24387 whole entry): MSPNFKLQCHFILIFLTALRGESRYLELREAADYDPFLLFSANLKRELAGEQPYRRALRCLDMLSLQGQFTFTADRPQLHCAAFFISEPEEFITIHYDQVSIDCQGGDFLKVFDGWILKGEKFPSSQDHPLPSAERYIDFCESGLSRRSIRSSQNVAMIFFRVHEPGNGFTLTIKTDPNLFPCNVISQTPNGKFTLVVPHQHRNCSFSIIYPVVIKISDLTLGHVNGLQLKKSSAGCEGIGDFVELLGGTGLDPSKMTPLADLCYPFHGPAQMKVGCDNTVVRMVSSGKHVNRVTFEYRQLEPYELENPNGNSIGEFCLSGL

[5] = molecular target: T2, Corticotropin-releasing factor receptor 2/Corticotropin-releasing factor-binding protein; experiment: activators of CRF receptor 2 with binding protein – uHTS hits, confirmation (AID 602473); assay type: functional; conditions: read-out: EC50_Mean
[6] = test system: H4; experiment: Luminescence Cell-Based Dose Response HTS to Identify Activators of 5'UTR Stem-Loop Driven Prion Protein mRNA Translation in H4 Neuroglioblastoma Cells. [Related pubchem assays: 1829 (Project Summary), 1814 (Primary HTS)]; assay type: functional; conditions: Homo sapiens
[7] = Luminescence Cell-Based Dose Confirmation HTS to Identify Activators of 5'UTR Stem-Loop Driven Alpha-Synuclein mRNA Translation in H4 Neuroglioblastoma Cells. [Related pubchem assays: 1829 (Project Summary), 1814 (Primary HTS)]; assay type: functional
[8] = Luminescence Cell-Based Dose Response HTS to Identify Activators of Luciferase Translation or Activity in H4 […] Cells. [Related pubchem assays: 1829 (Project Summary), 1814 (Primary HTS)]; assay type: functional
[9] = molecular target: T3, Cytochrome P450 1A2 (Homo sapiens, UniProt P05177);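 note: PubChem cytochrome P450 panel assay, CYP1A2 panel member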
T3 sequence (P05177 whole entry): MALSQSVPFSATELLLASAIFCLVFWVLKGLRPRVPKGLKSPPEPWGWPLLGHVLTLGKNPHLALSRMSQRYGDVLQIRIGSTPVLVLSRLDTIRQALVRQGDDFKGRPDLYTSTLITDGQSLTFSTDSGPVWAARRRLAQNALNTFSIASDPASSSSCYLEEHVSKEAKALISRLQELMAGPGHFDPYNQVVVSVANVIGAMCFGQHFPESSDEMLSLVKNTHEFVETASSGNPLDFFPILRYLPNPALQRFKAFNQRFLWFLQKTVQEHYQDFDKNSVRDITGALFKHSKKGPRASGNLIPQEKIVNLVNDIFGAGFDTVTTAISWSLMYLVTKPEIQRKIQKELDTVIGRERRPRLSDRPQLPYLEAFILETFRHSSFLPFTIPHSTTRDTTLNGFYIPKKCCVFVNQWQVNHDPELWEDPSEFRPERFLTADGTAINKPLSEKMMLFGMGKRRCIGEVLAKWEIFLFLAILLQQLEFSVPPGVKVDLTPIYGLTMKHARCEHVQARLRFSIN

[10] = molecular target: Cytochrome P450 2C9 (Homo sapiens, UniProt P11712)
[11] = molecular target: Cytochrome P450 3A4 (Homo sapiens, UniProt P08684);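 note: CYP3A4 tested as one member of a cytochrome P450 panel screen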
Cytochrome P450 3A4, sequence (P08684 whole entry): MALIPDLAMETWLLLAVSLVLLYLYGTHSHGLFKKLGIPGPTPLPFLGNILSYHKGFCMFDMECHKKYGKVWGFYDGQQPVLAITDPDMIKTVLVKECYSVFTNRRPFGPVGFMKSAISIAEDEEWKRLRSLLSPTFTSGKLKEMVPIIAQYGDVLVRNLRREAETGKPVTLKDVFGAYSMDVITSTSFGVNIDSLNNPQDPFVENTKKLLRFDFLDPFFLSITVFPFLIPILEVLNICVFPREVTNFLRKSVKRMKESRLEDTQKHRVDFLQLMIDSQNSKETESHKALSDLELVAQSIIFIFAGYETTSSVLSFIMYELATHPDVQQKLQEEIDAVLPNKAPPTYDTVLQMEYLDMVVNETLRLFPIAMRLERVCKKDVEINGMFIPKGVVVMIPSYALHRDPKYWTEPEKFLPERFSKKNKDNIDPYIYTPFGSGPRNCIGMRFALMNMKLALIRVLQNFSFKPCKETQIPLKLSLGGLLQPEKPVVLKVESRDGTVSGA

Cytochrome P450 2C9, sequence (P11712 whole entry): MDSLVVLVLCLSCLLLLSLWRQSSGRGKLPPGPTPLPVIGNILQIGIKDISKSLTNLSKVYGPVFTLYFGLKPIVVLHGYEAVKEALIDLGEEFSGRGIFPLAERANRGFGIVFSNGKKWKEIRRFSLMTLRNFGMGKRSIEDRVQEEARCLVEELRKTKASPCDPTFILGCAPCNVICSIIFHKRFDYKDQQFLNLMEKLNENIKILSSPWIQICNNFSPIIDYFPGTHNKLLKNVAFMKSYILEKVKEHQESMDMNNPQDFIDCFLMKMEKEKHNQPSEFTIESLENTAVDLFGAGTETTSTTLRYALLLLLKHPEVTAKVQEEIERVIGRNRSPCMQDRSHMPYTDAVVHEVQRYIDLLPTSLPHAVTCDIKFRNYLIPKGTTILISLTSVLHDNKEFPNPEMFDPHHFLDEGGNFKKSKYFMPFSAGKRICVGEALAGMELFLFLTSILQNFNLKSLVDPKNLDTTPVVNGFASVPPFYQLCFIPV

## COc1ccc(OC)c(NC(=O)NC2CCCc3ccccc32)c1 (stereo unspecified)
[1]
  EC50: > 150 µM (not active)
[2]
  EC50: > 150 µM (not active)
[3]
  EC50: > 150 µM (not active)

## CCCC(=O)Nc1ccc(-c2nc3cc(C)c(C)cc3o2)c(O)c1
[4]
  IC50: > 47.1 µM (inactive)
[5]
  EC50: > 53 µM (inactive)

## Cc1ccc(C2NC(=O)c3ccccc3N2)s1 (stereo unspecified)
[6]
  EC50: 11.8 µM (active)
[7]
  EC50: > 120 µM (not active)
[8]
  EC50: 10.5 µM (active)

## O=C(NCCN1CCN(C(=O)NC2CCCCC2)CC1)NC1CCCCC1
[4]
  IC50: > 47.1 µM (inactive)
[5]
  EC50: > 53 µM (inactive)

## CCOC(=O)c1c[nH]nc1N=C(S)Nc1ccc(Cl)cc1
[4]
  IC50: > 47.1 µM (inactive)
[5]
  EC50: > 53 µM (inactive)

## CNP(=O)(Oc1ccccc1)OC12CC3CC(CC(C3)C1)C2 (stereo unspecified)
[4]
  IC50: > 47.1 µM (inactive)
[5]
  EC50: > 53 µM (inactive)

## Cc1cccc(NC2=NN=C(c3c(C)[nH]c4ccccc34)CS2)c1
[1]
  EC50: 6.58 µM (active)
[2]
  EC50: > 150 µM (not active)
[3]
  EC50: 3.91 µM (active)

## COc1cc(NC(=O)CSc2cc(C)c3cc(C)cc(C)c3n2)c(C(=O)O)cc1OC
[4]
  IC50: > 47.1 µM (inactive)
[5]
  EC50: > 53 µM (inactive)

## Cc1ccc2nc(SCC(=O)c3ccc(Cl)s3)[nH]c2c1
[2]
  EC50: > 150 µM (not active)

## O=C(Nc1cccc(-c2ccc(N3CCOCC3)nn2)c1)c1ccccc1Cl
[1]
  EC50: > 150 µM (not active)
[2]
  EC50: > 150 µM (not active)
[3]
  EC50: > 150 µM (not active)

## Clc1ccccc1Nc1ncnc(-n2cccc2)n1
[6]
  EC50: 6.97 µM (active)
[7]
  EC50: 0.153 µM (active)
[8]
  EC50: 1.7 µM (active)

## CCOc1cc(NC(=O)C2CCCCC2)c(OCC)cc1NC(=O)c1ccco1
[9]
  AC50: 2 µM (inconclusive)
[10]
  AC50: 11.2 µM (inconclusive)
[11]
  AC50: 1.12 µM (inconclusive)

## CCCCc1c(C)nn(-c2nnc3c4ccccc4n(C)c3n2)c1C
[6]
  EC50: 15.8 µM (active)
[7]
  EC50: > 120 µM (not active)
[8]
  EC50: 5.26 µM (active)

## CC[C@@](O)(C(=O)O)c1cc2n(c(=O)c1CO)Cc1cc3ccccc3nc1-2
[9]
  AC50: 3.16 µM (inconclusive)
[11]
  AC50: 3.16 µM (inconclusive)

## CCC1SC(NC(=O)NC2CCCCC2)=NC1=O (stereo unspecified)
[6]
  EC50: 0.115 µM (active)
[7]
  EC50: 15.8 µM (active)
[8]
  EC50: 27.5 µM (active)

## CSc1nnc2c(n1)c(C)nn2-c1ccc(C)cc1
[6]
  EC50: 4.22 µM (active)
[7]
  EC50: 0.114 µM (active)
[8]
  EC50: 16.1 µM (active)

## COc1ccccc1-c1nnc(NC(=O)c2ccc(S(=O)(=O)N(C)CC3CCCO3)cc2)o1 (stereo unspecified)
[1]
  EC50: 78.9 µM (active)
[2]
  EC50: > 150 µM (not active)
[3]
  EC50: 19.5 µM (active)

## COc1ccc(Nc2nc(NN)nc(Nc3ccc(OC)cc3)n2)cc1
[1]
  EC50: > 150 µM (not active)
[2]
  EC50: > 150 µM (not active)
[3]
  EC50: 11.3 µM (active)
